From US6969732B2, “Propylisopropyl acetic acid and propylisopropyl acetamide stereoisomers, a method for their synthesis and pharmaceutical compositions containing them” (Yissum Research Development Company of the Hebrew …, priority 1999, dated 2005)

How the values were obtained:
anaesthetized rats = assay: Dural plasma protein (BSA) extravasation evoked by unilateral trigeminal ganglion stimulation; assay type: in vivo; conditions: FIG. 7
Excerpt: The animal model used in this study is the one developed by Moskowitz et al. (F. M. Cutrer, V. Limmroth and M. A. Moskowitz: Possible mechanisms of valproate in migraine prophylaxis, Cephalalgia 17:93-100 (1997)). Moskowitz et. al. examined the plasma protein extravasation following electrical trigeminal ganglion stimulation or intravenous administration of substance P. It was concluded that in this model valproic acid blocks plasma extravasation in the meninges through GABAA-mediated postjunctional receptors probably within the meninges. […] Thus, agonists and modulators at the GABAA receptor may become useful for the development of selective drugs for migraine and cluster headache (W. S. Lee et. al.: Peripheral GABAA receptor mediated effects of sodium valproate on durnal plasma protein extravasation to substance P and trigeminal stimulation, Toward Migraine 2000, F. C. Rose Ed. Elsevier, Amsterdam, 1996, pp.289-319).
We tested the effects of PID on dural plasma protein (Bovine Serum Albumine—BSA) extravasation evoked by unilateral trigeminal gangelion stimulation in anaesthetized rats.

NMRI mice = conditions: single 3 mmol/kg subcutaneously in 25% Cremophor EL, day 8 of gestation; for Total Implants: examined day 18
Method: Mice of the NMRI strain (Harlan-Winkelmann GmbH, 33176 Borchen, Germany) were kept under controlled conditions: Room temperature (21±1° C.), relative humidity (50±5%), and a 12 hour light-dark cycle with the light period from 10 a.m. to 10 p.m. Females weighing 28 to 36 g were mated with males of the same strain for 3 hours (from 6 a.m. to 9 a.m.). Animals with vaginal plugs were separated, and the following 24 hour period was designated as day 0 of pregnancy. The animals were given free access to food (Altromin 1324 diet, Lage, Germany) and tap water. Approval for the study was obtained from the Department of Health.
Sodium valproate (VPA-Na), racemic PID, (2R)-PID and (2S)-PID were suspended in a 25% Cremophor EL aqueous solution. For another treatment group, VPA-Na was dissolved in distilled water. The pregnant dams were injected with a single 3 mmol/kg subcutaneously dose (10 ml/kg volume administered) on the morning of day 8 of gestation. Mice of the control group were injected with the vehicle, 25% Cremophor EL solution (10 ml/kg volume administered). […] Living fetuses were weighed individually and inspected for the presence of external malformations.

SWV mice = assay: Teratogenicity (Finnel) study in SWV mice; conditions: for Implants: examined day 18.5
[1] = SWV mice, single ip 600 mg/kg at day 8.5 of gestation
[2] = SWV mice, single ip 500 mg/kg at day 8.5 of gestation

Row | SMILES | effect on dural plasma protein extravasation (anaesthetized rats) | Embryolethality (percent of total implants) (NMRI mice) | Exencephaly (percent of live fetuses) (NMRI mice) | Fetal Weight (NMRI mice) | Live Fetuses (NMRI mice) | Total Implants (NMRI mice) | Live Fetuses (SWV mice; [1]) | Resorptior (number) (SWV mice; [1]) | Resorptior (percent of total implants) (SWV mice; [1]) | Implants (SWV mice; [1]) | Exencephaly (number) (SWV mice; SWV mice, single ip 600 mg/kg at day 8.5 of gestation, 600 mg/kg) | Exencephaly (number) (SWV mice; SWV mice, single ip 600 mg/kg at day 8.5 of gestation, listed as racemic, 600 mg/kg) | maternal lethality (SWV mice; SWV dams, 600 mg/kg ip) | Exencephaly (number) (SWV mice; [2]) | Exencephaly (percent of live fetuses) (SWV mice; [2]) | Live Fetuses (SWV mice; [2]) | Resorptior (number) (SWV mice; [2]) | Resorptior (percent of total implants) (SWV mice; [2]) | Implants (SWV mice; [2])
1 | CCCC(C(N)=O)C(C)C (stereo not drawn) [PID, propylisopropyl acetamide] | has inhibitory effects on the dural plasma protein extravasation | 9.4% | 0 (0) % | 1.21 ± 0.07 g | 87 n | 96 n | 118 | 8 | 6.3% | 126 | 0 | failed to induce exencephaly | – | – | – | – | – | – | –
2 | CCC[C@@H](C(N)=O)C(C)C [(R)-PID, (R)-propylisopropyl acetamide] | – | 15.2% | 0 (0) % | 1.16 ± 0.08 g | 78 n | 92 n | 120 | 14 | 10.4% | 134 | – | – | – | – | – | – | – | – | –
3 | CCC[C@H](C(N)=O)C(C)C [(S)-PID, (S)-propylisopropyl acetamide] | – | 9.4% | 0 (0) % | 1.15 ± 0.09 g | 58 n | 64 n | – | – | – | – | – | – | several incidences of maternal lethality | 1 | 0.8% | 123 | 8 | 6.1% | 131
